Series [1] can be described thus: Chemical stability (half-life) in phosphate buffer by HPLC. The conditions noted are these: pH 7.4, phosphate buffer (pH7.40; 37°C). In kind it is physicochemical. As to the method: Chemical stability (half-life) in phosphate buffer (pH 7.40; 37°C) of some of the compounds of the present invention was determined using high performance liquid chromatography (HPLC). A Hamilton PRP-1 (250 mm x 4.1 mm) column was used with UV detection at 280 nm. The mobile phase used consisted of a 0.01 M solution of tetradecyltrimethylammonium bromide in a mixture of 70% 0.072M phosphate buffer (pH 8.2) and 30% acetonitrile. In some experiments, minor adjustments to the pH and in the acetonitrile concentration were made to improve resolutions.

The next series deals with Prot. vulgaris ATCC 6380. In words: In vitro MIC, Agar Dilution Method. The following applies: Proteus vulgaris, ATCC6380, read-out: MIC. The format is cell-based. As to the method: (§1) In vitro activity of the compounds of the present invention was measured by the Minimum Inhibitory Concentration (MIC) in micrograms/ml utilizing the Agar Dilution Method, which is well known in the art, against a variety of gram-negative and gram-positive organisms.
In general terms: In agar dilution the substance is mixed into plates at graded concentrations.

A further series has as its system Ps. aeruginosa 5712. Put plainly: In vitro MIC, Agar Dilution Method. The following applies: Pseudomonas aeruginosa, read-out: MIC. The format is cell-based. As for the experimental part: as §1
Another series relates to Staph. aureus Smith. Put plainly: In vitro MIC, Agar Dilution Method. The format is cell-based. The following applies: Staphylococcus aureus, read-out: MIC. As to the method:
as §1

A further series deals with Ps. aeruginosa 18SH. In words: In vitro MIC, Agar Dilution Method. In kind it is cell-based. The following applies: Pseudomonas aeruginosa, read-out: MIC. As for the experimental part: as §1
For the next series, the system named is Ser. marcescens SM. Put plainly: In vitro MIC, Agar Dilution Method. In kind it is cell-based. The following applies: Serratia marcescens, read-out: MIC. As for the experimental part:
as §1

For the next series, the system named is Staph. aureus 753. In words: In vitro MIC, Agar Dilution Method. In kind it is cell-based. The following applies: Staphylococcus aureus, read-out: MIC. As for the experimental part:
as §1

The next series deals with Prot. mirabilis 90. Put plainly: In vitro MIC, Agar Dilution Method. In kind it is cell-based. The following applies: Proteus mirabilis. As for the experimental part:
as §1

For a further series, the system named is Str. pneumoniae 6301. Put plainly: In vitro MIC, Agar Dilution Method. The conditions noted are these: Streptococcus pneumoniae. The format is cell-based. As to the method:
as §1

In another series the test system is Ps. aeruginosa 8780. Put plainly: In vitro MIC, Agar Dilution Method. The format is cell-based. The following applies: Pseudomonas aeruginosa, read-out: MIC. As to the method:
as §1

A further series has as its system Enter. cloacae 5699. In words: In vitro MIC, Agar Dilution Method. The format is cell-based. The conditions noted are these: Enterobacter cloacae. As for the experimental part:
as §1

The test system of another series is Ps. aeruginosa 765. Put plainly: In vitro MIC, Agar Dilution Method. The format is cell-based. The conditions noted are these: Pseudomonas aeruginosa, read-out: MIC. As for the experimental part:
as §1

In the next series the test system is Str. pyogenes 4. In words: In vitro MIC, Agar Dilution Method. The format is cell-based. The conditions noted are these: Streptococcus pyogenes. As for the experimental part:
as §1

The subject of the next series is Prot. vulgaris 1028 BC. Put plainly: In vitro MIC, Agar Dilution Method. The format is cell-based. The following applies: Proteus vulgaris, read-out: MIC. As for the experimental part: as §1
For a further series, the system named is Str. faecalis ATCC 29212. In words: In vitro MIC, Agar Dilution Method. In kind it is cell-based. The following applies: Enterococcus faecalis, ATCC29212. As to the method:
as §1

Another series relates to Staph. aureus ATCC 29213. Put plainly: In vitro MIC, Agar Dilution Method. The conditions noted are these: Staphylococcus aureus, ATCC29213, read-out: MIC. The format is cell-based. As to the method: as §1
A further series deals with Staph. aureus 67. Put plainly: In vitro MIC, Agar Dilution Method. The format is cell-based. The following applies: Staphylococcus aureus. As to the method: as §1
The subject of the next series is K. pneumoniae A. Put plainly: In vitro MIC, Agar Dilution Method. The format is cell-based. The following applies: Klebsiella pneumoniae. As for the experimental part:
as §1

Series [2] concerns Ps. aeruginosa ATCC 27853. In words: In vitro MIC, Agar Dilution Method. The following applies: Pseudomonas aeruginosa, ATCC27853, read-out: MIC. The format is cell-based. As to the method:
as §1

Another series relates to Ser. marcescens 1071. In words: In vitro MIC, Agar Dilution Method. The following applies: Serratia marcescens. In kind it is cell-based. As for the experimental part: as §1
Another series relates to Staph. aureus 1059B. Put plainly: In vitro MIC, Agar Dilution Method. The format is cell-based. The following applies: Staphylococcus aureus, read-out: MIC. As to the method: as §1
A further series deals with Cit. freundi BS-16. Put plainly: In vitro MIC, Agar Dilution Method. The following applies: read-out: MIC. The format is cell-based. As for the experimental part: as §1
Another series has as its system E. coli TEM-1. Put plainly: microbe, parasite or virus in culture. The conditions noted are these: Escherichia coli, agar dilution, read-out: MIC. In kind it is cell-based. As for the experimental part: as §1
The subject of another series is E. coli 257. Put plainly: microbe, parasite or virus in culture. The format is cell-based. The following applies: Escherichia coli, agar dilution, read-out: MIC. As to the method:
as §1

Another series relates to E. coli ATCC 25922. In words: microbe, parasite or virus in culture. The format is cell-based. The following applies: Escherichia coli, ATCC25922, agar dilution, read-out: MIC. As for the experimental part:
as §1

A further series has as its system Enter. cloacae P99. In words: microbe, parasite or virus in culture. In kind it is cell-based. The following applies: Enterobacter cloacae, agar dilution, read-out: MIC. As for the experimental part: as §1

The values that follow come from patent publication EP0550775A1, “Cephalosporin derivatives” (F. HOFFMANN-LA ROCHE AG, priority 1992, dated 1993).

Molecules are shown by their SMILES. Where a name gives a salt, the structure may show the parent alone. Read-outs that look alike come from different tables or passages of the source.

A word on the half-life: it is the time in which the quantity being followed falls by half. Read a low half-life as rapid decline. `CCN1CCN(C(=O)N[C@@H](C(=O)N[C@@H]2C(=O)N3C(C(=O)O)=C(CN4CCN(c5cc6c(cc5F)c(=O)c(C(=O)O)cn6C5CC5)CC4)CS[C@H]23)c2ccc(O)cc2)C(=O)C1=O` [Compound E, [6R-[6α,7β(R)]]-3-[[4-(3-Carboxy-1-cyclopropyl-6-fluoro-1,4-dihydro-4-oxo-7-quinolinyl)-1-piperazinyl]methyl]-7-[[[[(4-ethyl-2,3-dioxo-1-piperazinyl)carbonyl]amino](4-hydroxyphenyl)acetyl]amino]-8-oxo-5-thia-1-azabicyclo[4.2.0]oct-2-ene-2-carboxylic acid trfluoroacetic acid salt]: the half-life in series [1] was 60 h. Besides, the MIC in the series on Prot. vulgaris ATCC 6380 amounted to 125 µg/mL; in the series with Ps. aeruginosa 5712 it was 32000 µg/mL; in the series on Staph. aureus Smith it was 2000 µg/mL; with Ps. aeruginosa 18SH, 2000 µg/mL; in the series on Ser. marcescens SM, 250 µg/mL; in the series on Staph. aureus 753, 2000 µg/mL. Besides, the MIC with Prot. mirabilis 90 (Prot. mirabilis 90, agar dilution, read-out: MIC) came to 1000 µg/mL; in the series on Str. pneumoniae 6301 (Str. pneumoniae 6301, agar dilution, read-out: MIC), 125 µg/mL; in the series with Ps. aeruginosa 8780, 8000 µg/mL; with Enter. cloacae 5699 (Enter. cloacae 5699, agar dilution, read-out: MIC) it was 125 µg/mL; in the series with Ps. aeruginosa 765 it was 4000 µg/mL; in the series on Str. pyogenes 4 (Str. pyogenes 4, agar dilution, read-out: MIC) it was 125 µg/mL. The MIC turned out to be 62.5 µg/mL with Prot. vulgaris 1028 BC; 16000 µg/mL with Str. faecalis ATCC 29212 (Str. faecalis ATCC 29212, agar dilution, read-out: MIC); 2000 µg/mL with Staph. aureus ATCC 29213; 16000 µg/mL in the series with Staph. aureus 67 (Staph. aureus 67, agar dilution, read-out: MIC); 500 µg/mL in the series with K. pneumoniae A (K. pneumoniae A, agar dilution, read-out: MIC); 8000 µg/mL in series [2]. Moreover, the MIC with Ser. marcescens 1071 (Ser. marcescens 1071, agar dilution, read-out: MIC) was 250 µg/mL; with Staph. aureus 1059B, 2000 µg/mL; with Cit. freundi BS-16 it was 62.5 µg/mL; in the series with E. coli TEM-1, 31.3 µg/mL; with E. coli 257, not above 15.7 µg/mL; in the series with E. coli ATCC 25922 it was not above 15.7 µg/mL. In the series with Enter. cloacae P99, the MIC is not above 15.7 µg/mL.
The compound `O=C([O-])C1=C(CN2CCN(c3cc4c(cc3F)c(=O)c(C(=O)[O-])cn4C3CC3)CC2)CS[C@@H]2[C@H](NC(=O)C(C(=O)[O-])c3ccccc3)C(=O)N12.[Na+].[Na+].[Na+]` (stereo partly drawn) [Compound F, (6R-trans)-3-[[4-(3-Carboxy-1-cyclopropyl-6-fluoro-1,4-dihydro-4-oxo-7-quinolinyl)-1-piperazinyl]methyl]-7-[(carboxyphenylacetyl)amino]-8-oxo-5-thia-1-azabicyclo[4.2.0]oct-2-ene-2-carboxylic acid sodium salt] had a half-life in series [1] of 228 h. Further, the MIC is 1000 µg/mL against Prot. mirabilis 90 (90); 500 µg/mL in the series on Str. pneumoniae 6301 (6301); 500 µg/mL against Enter. cloacae 5699 (5699); 500 µg/mL against Str. pyogenes 4 (4); 32000 µg/mL with Str. faecalis ATCC 29212; 8000 µg/mL in the series with Staph. aureus 67 (67). In addition, the MIC was found to be 1000 µg/mL in the series on K. pneumoniae A and 500 µg/mL in the series with Ser. marcescens 1071 (1071).
